Nine compounds from patent publication US20220346372A1, “Compositions For Preparing Microemulsion, Microemulsion, Method For Producing Composition And Microemulsion, And Use Of Mircoemulsion” (Moresco Corporation, priority 2019, published 2022) can be followed below.

The first data set can be described thus: LogP, flask shaking method (OECD guideline, n-octanol/water). The class given is physicochemical. Conditions: 1-octanol-water partition coefficient. From the text: Here, LogP is a common logarithmic value of a 1-octanol-water or 1-octanol-buffer partition coefficient of a chemical substance. In the present specification, LogP is a value measured by a flask shaking method based on OECD GUIDELINE FOR THE TESTING OF CHEMICALS, “Partition Coefficient (n-octanol/water): Shake Flask Method”. A chemical substance having a higher LogP has a higher degree of lipophilicity. In other words, a chemical substance having a higher LogP has a higher degree of fat-solubility.
Regarding `Cc1c(C)c2c(c(C)c1O)CCC(C)(CCCC(C)CCCC(C)CCCC(C)C)O2` (racemic) [tocopherol, DL-α-Tocopherol], the “LogP of the poorly water-soluble functional component” value is given as 8.84.
For `COc1ccc2c(c1)c(CC(=O)O)c(C)n2C(=O)c1ccc(Cl)cc1` [indomethacin, Indomethacin], the “LogP of the poorly water-soluble functional component” value turned out to be 4.25.
The same measure, in the same setting: the same measure for Tocotrienol: 7.68.

The same data set, now with this note: 1-octanol-water partition coefficient, read-out: LogP of the poorly water-soluble functional component.
In general, logP refers to a log measure of how a compound divides between an organic and an aqueous phase. On to `CC1CCC(C(C)C)C(O)C1` (single isomer, unassigned; (-)) [menthol, (−)-Menthol], for which the logP was 2.68.
Turning to `COC1=C(OC)C(=O)C(C/C=C(\C)CC/C=C(\C)CC/C=C(\C)CC/C=C(\C)CC/C=C(\C)CC/C=C(\C)CC/C=C(\C)CC/C=C(\C)CC/C=C(\C)CCC=C(C)C)=C(C)C1=O` [CoQ10, coenzyme Q10], the logP came to 11.
Regarding `Clc1ccc(C(c2ccc(Cl)cc2)C(Cl)(Cl)Cl)cc1` [DDT, dichlorodiphenyltrichloroethane], the log partition coefficient (logP) came to 6.5.
Turning to `COc1cc(/C=C/C(=O)CC(=O)/C=C/c2ccc(O)c(OC)c2)ccc1O` [curcumin, Curcumin], the logP was found to be 3.62.
As to `COc1ccc2c(c1)c(CC(=O)O)c(C)n2C(=O)c1ccc(Cl)cc1` [indomethacin, Indomethacin], the logP was 4.25.
On the same count and under the same terms, the same measure for `CC(=O)O[C@H]1C(=O)[C@@]2(C)[C@H]([C@H](OC(=O)c3ccccc3)[C@]3(O)C[C@H](OC(=O)[C@H](O)[C@@H](NC(=O)c4ccccc4)c4ccccc4)C(C)=C1C3(C)C)[C@]1(OC(C)=O)CO[C@@H]1C[C@@H]2O` [paclitaxel, Paclitaxel]: 3.2; for `C[C@]12CC[C@H]3[C@@H](CCC4=CC(=O)CC[C@@]43C)[C@@H]1CC[C@@H]2O` [testosterone, Testosterone]: 2.99.
